Tests used:
[1] = test system: apolipoprotein AI (apoA-I); test: Levels of apoA-I in SHR rats (RT-PCR); assay type: in vivo, rat; conditions: 200 mg/kg day p.o., 30 days, before treatment 100%
How it was run: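 SHR rats dosed orally at 200 mg/kg day for 30 days against water vehicle. At study end, blood pressure taken non-invasively by tail cuff and apoA-I assessed as gene expression by RT-PCR.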

P19 cells = test: NMDA-induced neuronal death in P19 cells; assay type: cell-based; conditions: for Neuronal death (P19 cells) after treatment with NMDA: NMDA alone 100% death, control without NMDA 0%, negative values = proliferation
COX-2 = test: Expression of COX-2 in LPS-stimulated monocytes in culture; assay type: cell-based, human; conditions: positive control with LPS 100%
How it was run: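 Cultured monocytes stimulated with LPS; COX-2 protein level expressed as % inhibition relative to the LPS-only positive control (100%).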

TNF-α = test: Production of TNF-α in serum of LPS-injected C57BL6/J mice; assay type: in vivo; conditions: LPS 20 μg i.p. (100%), 200 mg/kg p.o.
How it was run: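 C57BL6/J mice given intraperitoneal LPS (20 μg) to induce inflammation, then dosed orally with derivatives at 200 mg/kg. Serum TNF-α measured.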

[2] = Serum cholesterol, triglycerides and glucose in SHR rats (colorimetric); assay type: in vivo, rat; conditions: 200 mg/kg daily p.o., 28 days, untreated rats 100%
How it was run: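 SHR rats dosed p.o. at 200 mg/kg daily for 28 days; serum cholesterol, triglycerides and glucose measured colorimetrically. Values given as percent of untreated control rats, set at 100%.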

3T3 cells = test: Percentage of total PUFAs in membranes of 3T3 cells treated with fatty acids (gas chromatography); assay type: cell-based; conditions: 100 μM, 48 hours, mean ± SEM of four measures, control 32.4 ± 2.1
Source text: To perform these experiments, membranes were extracted and total fatty acids were obtained by hydrolysis in basic medium. Methanolic bases of these fatty acids were quantified by gas chromatography. The data shown are averages of four independent measures of PUFA's mass divided by the total fatty acids and expressed as a percentage. It is also shown is standard error of the mean.
The control corresponds to a culture without the presence of added natural or synthetic fatty acids. Cells in their natural form present PUFAs in their membranes, but the presence in the medium of the D-PUFA molecules of the invention increases these levels of PUFAs in the cell membrane.

[3] = test system: heterotrimeric Gi1 protein; test: Binding of heterotrimeric Gi1 protein to model membranes (centrifugation, immunoblotting); conditions: phosphatidylcholine:phosphatidylethanolamine (6:4) 2 mM phospholipid, 0.1 μM D-PUFA; control 100 ± 5; in % (unit assumed)
Source text: The net result is a regulation of cell signalling leading to the reversal of various pathological processes, as shown later. […] The Control is a sample of model membranes in the absence of fatty acids.

HepG2 cells = test: Liver cancer (HepG2 cells); assay type: cell-based; conditions: 72 hours
Experimental: These charts show the antitumor efficacy of the compounds of this invention against the growth of breast cancer cells, brain (glioma), and lung cancer. […] The other experimental conditions are identical to those described in the preceding paragraph.
Overall, it may be seen that the series of compounds A and B are the best, so the effectiveness of these series against the development of leukaemia and liver cancer (Tables 9 and 10) was tested.

| Compound | Levels of apoA-I [1] [%] | Neuronal death (P19 cells) after treatment with NMDA (P19 cells) [%] | COX-2 protein levels (expression), percentages of inhibition compared to positive control (COX-2) [%] | Production of TNF-α in serum (TNF-α) [%] | Cholesterol in serum (top number) [2] [%] | Glucose in serum (bottom number) [2] [%] | Triglycerides in serum (central number) [2] [%] | Percentage of total PUFA (3T3 cells) [%] | G protein binding [3] | IC50 (HepG2 cells; Homo sapiens, HepG2) [µM] | IC50 (HepG2 cells) [µM] | Increase in cell survival in the presence of NMDA (FIG. 4A) (P19 cells; P19 cells) |
| --- | --- | --- | --- | --- | --- | --- | --- | --- | --- | --- | --- | --- |
| CCC=CCC=CCC=CCCCCCCC(O)C(=O)[O-].[Na+] (centres unmarked) [183B1] | 151 | −58 | 33 | 81 | 75 | 84 | 66 | – | – | – | – | – |
| CCC=CCC=CCC=CCC=CCC=CCCC(O)C(=O)O (centres unmarked) [205A1, 2-hydroxy-5,8,11,14,17-eicosapentaenoic acid] | 346 | −50 | 31 | 56 | 69 | 82 | 74 | 46.7 ± 3.4 | 406 ± 14 | 401 | – | – |
| CCC=CCC=CCC=CCC=CCC=CCCC(O)C(=O)[O-].[Na+] (centres unmarked) [205B1] | 264 | −52 | 39 | 69 | 58 | 87 | 65 | – | – | – | – | – |
| CCC=CCC=CCC=CCC=CCC=CCC=CCC(O)C(=O)O (centres unmarked) [226A1] | 324 | −230 | 23 | 73 | 64 | 79 | 71 | 48.9 ± 3.7 | 422 ± 26 | – | 164 | more than 200% |

— patent publication US11253497B2, “Use of derivatives of polyunsaturated fatty acids as medicaments” (Lipopharma Therapeutics, S.L., priority 2009, dated 2022)
